In PubChem BioAssay (NCI) one finds GI50 and TGI data, which are given here for 17 compounds.

Values joined by “and” are separate entries in the source; they are usually repeats but may differ in a detail not shown here. Equal values may be shown once.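 Cells were grown in 96-well plates and exposed to each compound for 48 hours at five concentrations; endpoints were interpolated linearly between bracketing concentrations, or set to the highest concentration if not reached. At the GI50, growth is halved. TGI denotes the concentration required for complete inhibition of growth.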

Assay in all cases: growth of human tumour cells (NCI), 48 h
The test system of assay [1] is UACC-257 melanoma.
The subject of assay [2] is SW-620 colon.
The subject of assay [3] is LOX IMVI melanoma.
For assay [4], the system named is OVCAR-4 ovarian.
For assay [5], the system named is MCF7 breast.
In assay [6] the test system is EKVX NSCLC.
For assay [7], the system named is UO-31 renal.
For assay [8], the system named is NCI-H226 lung.
The subject of assay [9] is MALME-3M melanoma.
The subject of assay [10] is U251 CNS.

For `Oc1ccc(/C=N/Nc2nnc(N/N=C/c3ccc(O)cc3O)c3ccccc23)c(O)c1`, the GI50 is 1.84 µM in [1]; 0.277 µM in assay [3]; 0.449 µM in assay [4]; 0.576 µM in assay [5]; 0.349 µM in assay [6]; 0.282 µM in [7]. The GI50 in assay [8] is 1.92 µM; in assay [9], 0.633 µM; in assay [10] it was 0.312 µM. The TGI in assay [1] is 7.73 µM; in assay [2], 7.71 µM; in [3], 0.871 µM and 1.5 µM; in assay [4], 5.31 µM; in [5] it was 0.848 µM and 2.29 µM; in assay [7] it was 3.92 µM. Moreover, the TGI in [8] is 6.98 µM; in assay [9] it was 4.28 µM; in assay [10] it was 0.976 µM and 5.34 µM.

As for `CC(C)C12CCC3(CCC4C(C)(C(=O)O)CCCC4(C)C3C1)C(CN)C2` (stereo not given), the TGI in assay [1] was above 100 µM; in assay [2] it was above 100 µM; in assay [3], 34.7 µM; in assay [4], above 100 µM; in assay [5], above 100 µM; in assay [6] it was 62 µM. For the same compound, the TGI in [7], in assay [8], in assay [9] and in assay [10] was above 100 µM throughout.

As to `Cc1cccc(Cc2cnc(NC(=O)CCCOc3ccc(Cl)cc3)s2)c1`, the GI50 in [1] was 7.41 µM; in assay [2], 3.39 µM; in assay [3], 6.8 µM; in [4], 3.71 µM; in assay [5], 3.16 µM; in [6] it was 45 µM. Further, the GI50 in assay [7] was 4.52 µM; in assay [8], 59.3 µM; in assay [9], 5.38 µM; in assay [10], 4.88 µM. For the same compound, the TGI in assay [1], in assay [2], in assay [3], in assay [4], in assay [5] and in assay [6] was above 100 µM in each case. Moreover, the TGI in assay [7], in assay [8], in [9] and in assay [10] was above 100 µM each time.

Consider `CC(=O)OCc1cc2c(s1)C(=O)c1sccc1C2=O`, for which the TGI in assay [1] worked out at 0.244 µM; in assay [2], 0.268 µM; in [3], 0.0468 µM; in assay [4] it was 0.334 µM; in assay [5], 0.416 µM; in [6], 0.36 µM. Moreover, the TGI in assay [7] is 0.391 µM; in [8], 1.24 µM; in assay [9] it was 0.659 µM; in assay [10], 0.706 µM.

As to `CC(C)c1nc(Cl)c(Cl)c(Cl)n1`, the TGI in assay [1] was determined as 17.8 µM; in assay [2], 15.6 µM; in assay [3] it was 1.71 µM; in assay [4] it was 39.1 µM; in [5] it was 14.2 µM; in assay [6] it was 29.1 µM. Further, the TGI amounted to 2.66 µM in assay [7], 38.9 µM in assay [8], 19 µM in assay [9] and 12.8 µM in assay [10].

Consider `CC(C)(CCc1nc2ccccc2[nH]1)C(=O)O`, for which the TGI in [1], in assay [2], in [3], in assay [4], in assay [5] and in assay [6] was above 100 µM throughout. In addition, the TGI in assay [7], in assay [8], in assay [9] and in [10] was above 100 µM throughout.

`COc1ccc(C[C@H](N)C(=O)N[C@@H]2[C@@H](CO)OC(n3cnc4c(N(C)C)ncnc43)[C@@H]2O)cc1` (stereo not given in full): the GI50 in assay [1] is 0.321 µM; in assay [3] it was 0.202 µM; in assay [4] it was 0.194 µM; in assay [5] it was 0.152 µM; in [6], 0.614 µM; in assay [7] it was 1.56 µM. Besides, the GI50 was 0.497 µM in assay [8], 0.637 µM in assay [9] and 0.136 µM in [10]. The TGI in [1] was found to be 1.08 µM; in assay [2], 0.792 µM; in [3], 0.839 µM; in assay [4], 0.926 µM; in [5], 0.621 µM; in [6], 2.55 µM. For the same compound, the TGI in assay [7] was 6.57 µM; in assay [8] it was 1.27 µM; in [9], 1.39 µM; in [10] it was 0.507 µM.

With `Cc1c(N)nc(C2CC(=O)N2CC(N)C(N)=O)nc1C(=O)NC(C(=O)NC(C)C(O)C(C)C(=O)NC(C(=O)NCCc1nc(-c2nc(C(=O)NCCNCC(C)O)cs2)cs1)C(C)O)C(OC1OC(CO)C(O)C(O)C1OC1OC(CO)C(O)C(OC(N)=O)C1O)c1cnc[nH]1` (stereo not given), the GI50 in assay [1] was 6.2 µM; in [2], above 50 µM; in [3], 0.712 µM; in [4] it was 10.7 µM; in assay [6] it was above 50 µM; in assay [7], 0.974 µM. Besides, the GI50 was 1.16 µM in assay [9] and 2.53 µM in [10]. For the same compound, the TGI is 49.4 µM in assay [1]; above 50 µM in [2]; 9.28 µM and 8.16 µM in assay [3]; 50 µM and > 100 µM in [4]; 50 µM in assay [5]; above 88.9 µM in assay [6]. In addition, the TGI in assay [7] was 17 µM and 21.6 µM; in [8], 0.261 µM; in assay [9], 22.5 µM and 11.9 µM; in [10], 50 µM and 24.2 µM.

Consider `CCNc1nc(-c2ccc(Cl)c(OC)c2)c(-c2ccnc(NCCNS(=O)(=O)c3ccc(Cl)cc3)n2)s1`, for which the GI50 in assay [1] was 3.44 µM; in assay [2] it was 4.22 µM; in assay [3] it was 2.32 µM; in assay [4], 3.82 µM; in assay [5], 3.03 µM; in assay [6], 3.74 µM. The GI50 in assay [7] is 2.51 µM; in [8], 2.81 µM; in assay [9], 2.2 µM; in assay [10] it was 3.24 µM. In addition, the TGI in [1] was 49.4 µM; in [2] it was above 100 µM; in assay [3] it was 5.69 µM; in assay [4] it was above 100 µM; in assay [5], above 100 µM; in [6] it was above 100 µM. The TGI in assay [7] came to 6.37 µM; in [8], 14.3 µM; in assay [9], 7.39 µM; in assay [10], 10.3 µM.

In the case of `COc1ccc(Cl)cc1Nc1nc(C(F)(F)F)ccc1C(=O)N/N=C/c1ccc(Cl)cc1`, the GI50 in assay [1] is 7.91 µM; in assay [2], 8.2 µM; in assay [3], 8.08 µM; in assay [4] it was 0.74 µM; in assay [5], 1.05 µM; in assay [6], 4.45 µM. Besides, the GI50 in assay [7] was 1.03 µM; in assay [8], 4.18 µM; in [9], 1.36 µM; in assay [10], 4.79 µM. The TGI in [1], in assay [2], in assay [3], in assay [4], in assay [5] and in [6] was above 100 µM in each case. In addition, the TGI in [7] is above 100 µM; in assay [8], above 100 µM; in assay [9], 9.2 µM; in [10] it was 69.3 µM.

For the compound `CN1CCN(Cc2ccc(NC(=O)c3cncc(C#Cc4cnc5cccnn45)c3)cc2C(F)(F)F)CC1`, the GI50 is 1.4 µM in assay [1]; 0.981 µM in assay [2]; 1.07 µM in [3]; 0.732 µM in assay [4]; 0.707 µM in [5]; 1.19 µM in [6]. For the same compound, the GI50 in [7] was 1.49 µM; in assay [8], 0.286 µM; in assay [9] it was 0.595 µM; in assay [10], 1.48 µM. Also, the TGI came out at 5.04 µM in [1]; 4.34 µM in assay [2]; 2.98 µM in [3]; 3.68 µM in [4]; 4.77 µM in assay [5]; 3.49 µM in [6]. The TGI is 3.78 µM in [7], 2.48 µM in assay [8], 1.42 µM in assay [9] and 5.42 µM in [10].

In the case of `COc1cccc2c(Nc3ccc(C(=O)NCCN4CCNCC4)cc3)cc(-c3ccccc3)nc12`, the GI50 in assay [1] is above 100 µM; in [2], 29 µM; in assay [3] it was 20.6 µM; in [4] it was 17.4 µM; in assay [5], 23.7 µM; in [6], above 100 µM. Besides, the GI50 in [7] was 49.4 µM; in assay [8], above 100 µM; in assay [9], 21.6 µM; in assay [10], 34.8 µM. The TGI was above 100 µM in assay [1]; above 100 µM in [2]; 45.9 µM in assay [3]; 74.2 µM in assay [4]; above 100 µM in assay [5]; above 100 µM in [6]. The TGI in assay [7] is above 100 µM; in assay [8], above 100 µM; in assay [9], 47.6 µM; in [10], above 100 µM.

On to `COc1cc2nccc(Oc3ccc(NC(=O)C4(C(=O)Nc5ccc(F)cc5)CC4)cc3)c2cc1OC`, for which the GI50 in [1] was > 10 µM and 4.92 µM; in assay [2], 9.09 µM and 2.38 µM; in assay [3], 6.11 µM and 2.61 µM; in assay [4], > 10 µM and 3.79 µM; in assay [5] it was > 10 µM and 4.06 µM; in [6], > 10 µM and 6.98 µM. Also, the GI50 in [7] was 4.3 µM and 2.33 µM; in assay [8] it was 2.29 µM and 1.7 µM; in assay [9] it was > 10 µM and 2.11 µM; in assay [10], > 10 µM and 4.31 µM. Further, the TGI in [1] is above 74.7 µM; in [2], above 34.5 µM; in [3], > 10 µM and 15.2 µM; in assay [4], above 62.6 µM; in assay [5], above 54.2 µM; in [6] it was > 10 µM and 97.3 µM. Also, the TGI in assay [7] was > 10 µM and 12.7 µM; in assay [8] it was > 10 µM and 5.52 µM; in [9], > 10 µM and 9.17 µM; in [10], above 100 µM.

Turning to `CC(=O)Nc1ccc(C(=O)COc2cccc(/C=C3\CCc4ccccc4C3=O)c2)cc1`, the GI50 is 15.7 µM in assay [1]; 3.65 µM in assay [2]; 6.59 µM in assay [3]; 1.01 µM in [4]; 2.9 µM in assay [5]; 14.3 µM in assay [6]. Moreover, the GI50 is 15.5 µM in assay [7], 16.3 µM in assay [8], 15.8 µM in assay [9] and 12.4 µM in assay [10]. Besides, the TGI in assay [1] worked out at 39 µM; in assay [2] it was 15 µM; in assay [3], 25.4 µM; in assay [4], 26.1 µM; in [5], 19 µM; in assay [6], 68.7 µM. Moreover, the TGI in assay [7] is 64 µM; in [8], above 100 µM; in [9] it was 39.5 µM; in [10], 27.8 µM.

Regarding `COC(=O)/C(=C/c1ccc(OC)cc1)c1cc(OC)c(OC)c(OC)c1`, the TGI in assay [1] was above 84.3 µM; in [2], above 100 µM; in assay [3], above 100 µM; in assay [4] it was above 100 µM; in [5], above 100 µM; in assay [6], above 100 µM. Besides, the TGI is 74.9 µM in [7], 42.3 µM in assay [8], above 100 µM in [9] and 39 µM in [10].

As for `COC(=O)c1ccccc1NCc1cc(O)ccc1O`, the TGI in assay [1] is 31.2 µM; in assay [2] it was 52 µM; in [3], 32 µM; in [4], 34.9 µM; in assay [5], 38 µM; in assay [6], above 68.1 µM. In addition, the TGI in assay [7] was determined as 31.9 µM; in [8], 65.3 µM; in assay [9], 36.3 µM; in [10], 40.1 µM.

As to `Cc1cccc2c1Oc1ncccc1C2NC(=O)CN(C)C` (stereo not given), the TGI in [1], in [2], in [3], in assay [4], in [5] and in assay [6] was above 10 µM throughout. In addition, the TGI in assay [7], in assay [8], in [9] and in [10] was above 10 µM each time.
